According to patent US12629374B2, “Antimalarial agents” (Merck Sharp & Dohme LLC, priority 2020, dated 2026):

Each compound was assayed on ring stage parasites (assay: Parasite growth potency assay, 72 hours, LDH readout). Details: 72 h, parasite growth measured by LDH assay after 72 hours at 37° C.; 0.7% rings, 2% haematocrit; read-out: EC50.
Format: cell-based
In short: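 Parasite growth was quantified by LDH assay after a −80 °C freeze-thaw. Before that, compound was incubated for 72 h at 37 °C under humidified gas with ring-stage cultures adjusted to 0.7% parasitemia and 2% haematocrit in serum- and albumax-supplemented RPMI-Hepes.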
CCC[C@H](c1cccc(C(=O)N[C@@H]2CC3(CCC3)Oc3ccccc32)c1)N1C(=N)NC(CC)(CC)CC1=O (stereo in doubt) [Example 212A, [4,4-diethyl-6-oxo-1-[(1R)-1-[3-[[(4S)-spiro[chromane-2,1′-cyclobutane]-4-yl]carbamoyl]phenyl]butyl]hexahydropyrimidin-2-ylidene]ammonium; 2,2,2-trifluoroacetate] showed an EC50 of 8 nM.
CCC[C@H](c1cccc(C(=O)N[C@H]2CC3(CCC3)Oc3ccccc32)c1)N1C(=N)NC(CC)(CC)CC1=O (stereo in doubt) [Example 212B, [4,4-diethyl-6-oxo-1-[(1R)-1-[3-[[(4R)-spiro[chromane-2,1′-cyclobutane]-4-yl]carbamoyl]phenyl]butyl]hexahydropyrimidin-2-ylidene]ammonium; 2,2,2-trifluoroacetate] showed an EC50 of 0.9 nM.
Work on CCC1(CC)CC(=O)N(Cc2cccc(C(=O)N[C@H]3CCOc4ccc(Cl)cc43)c2)C(=N)N1 (stereo in doubt) [Example 215B, N-(6-chlorochroman-4-yl)-3-[(4,4-diethyl-2-imino-6-oxo-hexahydropyrimidin-1-yl)methyl]benzamide] yielded an EC50 of 3.7 nM.
CCC1(CC)CC(=O)N(Cc2cccc(C(=O)N[C@@H]3c4ccccc4OCC3(C)C)c2)C(=N)N1 (stereo in doubt) [Example 216, 3-[(4,4-diethyl-2-imino-6-oxo-hexahydropyrimidin-1-yl)methyl]-N-(3,3-dimethylchroman-4-yl)benzamide] was tested, and the EC50 was 0.5 nM.
For CCC1(CC)CC(=O)N(Cc2cccc(C(=O)N[C@H]3CCOc4ccc(C)cc43)c2)C(=N)N1 (stereo in doubt) [Example 217, 3-[(4,4-diethyl-2-imino-6-oxo-hexahydropyrimidin-1-yl)methyl]-N-(6-methylchroman-4-yl)benzamide], the EC50 was 10 nM.
In the case of CCC1(CC)CC(=O)N(Cc2cccc(C(=O)N[C@H]3CCOc4ccc(Br)cc43)c2)C(=N)N1 (stereo in doubt) [Example 219, [1-[[3-[(6-bromochroman-4-yl)carbamoyl]phenyl]methyl]-4,4-diethyl-6-oxo-hexahydropyrimidin-2-ylidene]ammonium; 2,2,2-trifluoroacetate], the EC50 is reported as 6.6 nM.
With CCC1(CC)CC(=O)N([C@H](CCOC)c2cc(F)cc(C(=O)NC3CCCOc4ccccc43)c2)C(=N)N1 (stereo in doubt) [Example 220, [4,4-diethyl-1-[1-[3-fluoro-5-(2,3,4,5-tetrahydro-1-benzoxepin-5-ylcarbamoyl)phenyl]-3-methoxy-propyl]-6-oxo-hexahydropyrimidin-2-ylidene]ammonium; 2,2,2-trifluoroacetate] the EC50 was 2.4 nM.
In the case of C#CCCC(c1cccc(C(=O)N[C@@H]2c3ccccc3C[C@H]2O)c1)N1C(=N)NC(CC)(CC)CC1=O (stereo in doubt) [Example 221, 3-[(1S)-1-(4,4-diethyl-2-imino-6-oxo-hexahydropyrimidin-1-yl)pent-4-ynyl]-N-[(1R,2R)-2-hydroxyindan-1-yl]benzamide], the EC50 is reported as 35.4 nM.
Compound CCC1(CC)CC(=O)N(Cc2cccc(C(=O)N[C@@H]3c4ccccc4OC(C)(C)[C@H]3O)c2)C(=N)N1 [Example 1, 3-((4,4-diethyl-2-imino-6-oxotetrahydropyrimidin-1(2H)-yl)methyl)-N-((3S,4R)-3-hydroxy-2,2-dimethylchroman-4-yl)benzamide] has an EC50 of 0.8 nM.
Work on CCC1(CC)CC(=O)N([C@H](CCOC)c2cccc(C(=O)N[C@@H]3c4ccccc4C[C@H]3O)c2)C(=N)N1 [Example 2, 3-((R)-1-(4,4-diethyl-2-imino-6-oxotetrahydropyrimidin-1(2H)-yl)-3-methoxypropyl)-N-((1R,2R)-2-hydroxy-2,3-dihydro-1H-inden-1-yl)benzamide] yielded an EC50 of 1.3 nM.
CC(C)[C@]1(C)CC(=O)N(Cc2cccc(C(=O)N[C@H]3CCOc4ccccc43)c2)C(=N)N1 [Example 3, [(4S)-1-[[3-[[(4S)-chroman-4-yl]carbamoyl]phenyl]methyl]-4-isopropyl-4-methyl-6-oxo-hexahydropyrimidin-2-ylidene]ammonium; 2,2,2-trifluoroacetate] gave an EC50 of 6.2 nM.
CCC1(CC)CC(=O)N([C@H](c2ccccc2)c2cccc(C(=O)N[C@H]3CCOc4ccccc43)c2)C(=N)N1 [Example 4A, [1-[[3-[[(4S)-chroman-4-yl]carbamoyl]phenyl]-phenyl-methyl]-4,4-diethyl-6-oxo-hexahydropyrimidin-2-ylidene]ammonium; 2,2,2-trifluoroacetate] was tested, and the EC50 was 0.4 nM.
CCC1(CC)CC(=O)N([C@H](c2ccccc2)c2cccc(C(=O)N[C@@H]3CCOc4ccccc43)c2)C(=N)N1 [Example 4B, [1-[[3-[[(4R)-chroman-4-yl]carbamoyl]phenyl]-phenyl-methyl]-4,4-diethyl-6-oxo-hexahydropyrimidin-2-ylidene]ammonium; 2,2,2-trifluoroacetate] showed an EC50 of 35.4 nM.
For N=C1N[C@@](CC2CC2)(c2ccccc2)CC(=O)N1Cc1cc(F)cc(C(=O)N[C@H]2CCOc3ccccc32)c1 [Example 5A, [(4R)-1-[[3-[[(4S)-chroman-4-yl]carbamoyl]-5-fluoro-phenyl]methyl]-4-(cyclopropylmethyl)-6-oxo-4-phenyl-hexahydropyrimidin-2-ylidene]ammonium; 2,2,2-trifluoroacetate], the EC50 was 16.2 nM.
N=C1N[C@@](CC2CC2)(c2ccccc2)CC(=O)N1Cc1cc(F)cc(C(=O)N[C@@H]2CCOc3ccccc32)c1 [Example 5B, [(4R)-1-[[3-[[(4R)-chroman-4-yl]carbamoyl]-5-fluoro-phenyl]methyl]-4-(cyclopropylmethyl)-6-oxo-4-phenyl-hexahydropyrimidin-2-ylidene]ammonium; 2,2,2-trifluoroacetate] was tested, and the EC50 was 57.4 nM.

Same assay, conditions: parasite growth measured by LDH assay after 72 hours at 37° C.; 0.7% rings, 2% haematocrit; trifluoroacetate; read-out: EC50
Compound C#CCC[C@H](c1cccc(C(=O)NC2CC3(CCC3)Oc3ccccc32)c1)N1C(=N)NC(CC)(CC)CC1=O (stereo in doubt) [Example 211B, [4,4-diethyl-6-oxo-1-[(1R)-1-[3-[[(4R)-spiro[chromane-2,1′-cyclobutane]-4-yl]carbamoyl]phenyl]pent-4-ynyl]hexahydropyrimidin-2-ylidene]ammonium; 2,2,2-trifluoroacetate] has an EC50 of 0.5 nM.
Compound C#CCC[C@@H](c1cccc(C(=O)N[C@@H]2CC3(CCC3)Oc3ccccc32)c1)N1C(=N)NC(CC)(CC)CC1=O (stereo in doubt) [Example 213, [4,4-diethyl-6-oxo-1-[(S)-1-[3-[[(4R)-spiro[chromane-2,1′-cyclobutane]-4-yl]carbamoyl]phenyl]pent-4-ynyl]hexahydropyrimidin-2-ylidene]ammonium; 2,2,2-trifluoroacetate] has an EC50 of 28.6 nM.
In the case of CCC1(CC)CC(=O)N(Cc2cccc(C(=O)N[C@H]3CC(c4ccccc4)Oc4ccccc43)c2)C(=N)N1 (stereo in doubt) [Example 218A, [4,4-diethyl-6-oxo-1-[[3-[(2-phenylchroman-4-yl)carbamoyl]phenyl]methyl]hexa-hydropyrimidin-2-ylidene]ammonium; 2,2,2-trifluoroacetate], the EC50 is reported as 55 nM.
In the case of CCC1(CC)CC(=O)N(Cc2cccc(C(=O)N[C@H]3CC(c4ccccc4)Oc4ccccc43)c2)C(=N)N1 (stereo in doubt) [Example 218B, [4,4-diethyl-6-oxo-1-[[3-[(2-phenylchroman-4-yl)carbamoyl]phenyl]methyl]hexa-hydropyrimidin-2-ylidene]ammonium; 2,2,2-trifluoroacetate], the EC50 is reported as 1.1 nM.
